Our source for the MIC and MBEC values is patent US20260374792A1, “PHENYL-FREE BISCATIONIC QUATERNARY PHOSPHONIUM COMPOUNDS AS ANTIMICROBIAL AGENTS” (priority 2022, published 2026).

One assay relates to P. aeruginosa (PAO1). In words: MIC against P. aeruginosa. The assay is classed as cell-based. The settings on record: Pseudomonas aeruginosa; P. aeruginosa (PAO1); 72 hours, 37 °C; read-out: MIC. As to the method: The term “minimum inhibitory concentration (MIC)” means the lowest concentration of an antimicrobial agent that will inhibit the visible growth of a microorganism after overnight incubation. MIC values against bacteria, for example, the Gram-positive Staphylococcus aureus and Enterococcus faecalis and the Gram-negative Escherichia coli and Pseudomonas aeruginosa were determined by standard methods. See also P. A. Wayne, Methods for Dilution Antimicrobial Tests for Bacteria that Grow Aerobically; Approved Standard, Ninth Edition, 2012, CLSI Document M07-A9, Vol. 32 No. 2.
Biological testing procedures were adapted from prior work by Melander and coworkers. For all biological assays, laboratory strains of methicillin-susceptible Staphylococcus aureus MSSA (SH1000), Staphylococcus aureus CA-MRSA (USA300-0114), Staphylococcus aureus HA-MRSA (ATCC 33591), Escherichia coli (MC4100), Enterococcus faecalis (OG1RF), Acinetobacter baumannii (ATCC 17978), were grown with shaking at 37 °C overnight from freezer stocks in 5 mL of the indicated media: SH1000, OG1RF, MC4100, USA300-0114, and ATCC 17978 were grown in BDTM Mueller-Hinton broth (MHB), whereas ATCC 33591 was grown in BDTM tryptic soy broth (TSB). The inoculum were then streaked onto Mueller-Hinton agar (MHA) plates and grown overnight at 37 °C. From the plates, single colonies were selected, diluted into 50 mL of fresh media and grown overnight at 37 °C with shaking for use in the MIC assays. Optical density (OD) measurements were obtained using a SpectraMax iD3 plate reader (Molecular Devices, United States).
Compounds were serially diluted two-fold from stock solutions (1.0 mM) to yield twelve 100 μL test concentrations, wherein the starting concentration of dimethyl sulfoxide (DMSO) was 2.5%. Overnight S. aureus, E. faecalis, E. coli, A. baumannii, USA300-0114 (CA-MRSA), and ATCC 33591 (HA-MRSA) cultures were diluted to ca. 10^6 CFU/mL in MHB or TSB and regrown to mid-exponential phase, as determined by optical density recorded at 600 nm (OD600). All cultures were then diluted again to ca. 10^6 CFU/mL and 100 μL were inoculated into each well of a U-bottom 96-well plate (Corning, 351177) containing 100 μL of compound solution. Plates were incubated statically at 37 °C for 72 hours upon which wells were evaluated visually for bacterial growth. The MIC was determined as the lowest concentration of compound resulting in no bacterial growth visible to the naked eye, based on the highest value in three independent experiments. Aqueous DMSO controls were conducted as appropriate for each compound.
The prepared library of biscationic amphiphilic compounds was assessed for performance as antibacterial disinfectants by determining the minimum inhibitory concentration (MIC) for each against a panel of bacteria. The bacteria selected for the study were chosen to evaluate the broad spectrum antimicrobial performance of the QPCs, and therefore, included both Gram-positive and Gram-negative bacterial strains, including those with known antimicrobial resistance mechanisms. These bacteria include the Gram-positive strains of methicillin-susceptible Staphylococcus aureus [MSSA; SH1000], community-acquired methicillin-resistant Staphylococcus aureus [CA-MRSA; USA 300-0114], hospital-acquired methicillin-resistant Staphylococcus aureus [HA-MRSA; ATCC 33591] and the […], Escherichia coli [MC4100], Acinetobacter baumannii [ATCC 17498] and Pseudomonas aeruginosa [PAO1].

For another assay, the system named is E. faecalis. Description: MBEC, biofilm eradication, E. faecalis. The settings on record: 24 hours, 37 °C, TSB. The assay is classed as cell-based, Enterococcus faecalis. How it is done:
(§1) A regrowth assay was used to establish the MBEC of a compound to evaluate the antibiofilm activity.
(§2) Biofilm eradication experiments were performed using a pegged-lid microtiter plate assay to determine the MBEC values for compounds of interest, as previously described. […] Sci. Rep. 2017, 7, 2003; and Raval, Y. S., Flurin, L., Mohamed, A., Greenwood-Quaintance, K. E., Beyenal, H., & Patel, R. In Vitro Activity of Hydrogen Peroxide and Hypochlorous Acid Generated by Electrochemical Scaffolds Against Planktonic and Biofilm Bacteria. Antimicrob Agents Chemother. 2021, 65, e01966-20. Briefly, […] of mid-log phase culture diluted to ca. 10^6 CFU/mL in tryptic soy broth (TSB) was added to wells of plat-bottom 96-well plates (Thermo Scientific, 266120) and covered with 96-pegged lid (Thermo Scientific, 445497). Plates were incubated to establish bacterial biofilms after incubation at 37 °C for 24 hours. The pegged lid was then removed, washed with PBS, and transferred to another 96-well plate containing 2-fold serial dilutions of the test compounds (the “challenge plate”). The total volume in each well was […], comprising of […] of compound diluted in water/DMSO, with a starting DMSO concentration of 2.5%, and […] of TSB. Plates were incubated statically at 37 °C for 24 hours. Next, the pegged lids were transferred to a fresh 96-well plate containing […] of TSB and incubated overnight at 37 °C. MBEC values were determined as the lowest test concentration that resulted eradicated biofilm (i.e., wells displaying no turbidity in the final plate).

For a further assay, the system named is P. aeruginosa. Description: MBEC, biofilm eradication, P. aeruginosa. The settings on record: 24 hours, 37 °C, TSB. It is filed as cell-based, Pseudomonas aeruginosa. As to the method:
as §1, §2

The MIC is the lowest concentration found to suppress growth. As for `CCCCCCCCCCCC[P+](C)(C)CC[P+](C)(C)CCCCCCCCCCC` [^MeP2P-12,12], in the assay with P. aeruginosa (PAO1), the MIC worked out at 8 µM. The results for the MBEC in the assay on E. faecalis and in the assay on P. aeruginosa were 8 µM and above 250 µM, respectively.

For `CCCCCCCCCCCC[N+](C)(C)CC[N+](C)(C)CCCCCCCCCCCC` [12(2)12, reference compound], in the assay on P. aeruginosa (PAO1), the MIC came out at 8 µM. Moreover, the MBEC is 8 µM with E. faecalis and above 250 µM with P. aeruginosa.
